Source: patent publication US4179464A, “Preparation of N-(phosphonoacetyl)-L-aspartic acid” (priority 1978, dated 1979)
“Also recorded” adds a separate entry of the source. Counter-ions that a name gives are not always drawn. Like-named read-outs stand apart in the source and are kept apart here.

Assays:
solubility = assay type: physicochemical
Method: (§1) The following determinations were made as to the physical properties of the disodium PALA. Except for the test for stability, these tests were carried out on material free of solvent contamination.

hygroscopic character = assay type: physicochemical; conditions: for physical state after moisture uptake: atmospheric moisture, eventually
Method: as §1
Hygroscopic Character. Tetrasodium PALA absorbs atmospheric moisture 1.5 times faster than the disodium salt.

[1] = test system: aspartate transcarbamylase; conditions: Stark et al., J. Biol. Chem., 246, 6599 (1971); cited from earlier work
[2] = test system: pyrimidine nucleotide biosynthesis; conditions: Stark et al. (1974); cited from earlier work
B16 tumor = conditions: NCI screening program, data through Aug. 31, 1976; cited from earlier work
Lewis Lung tumor = conditions: NCI screening program, data through Aug. 31, 1976; cited from earlier work
P388 tumor = conditions: NCI screening program, data through Aug. 31, 1976; cited from earlier work
tumor systems = assay: preliminary in vivo screening of PALA esters; conditions: relative to tetrasodium PALA
[3] = assay type: physicochemical
Method: as §1
pH. A 2% solution of the disodium salt in water has a pH of 4.08.

[4] = stability on drying in vacuo at 140° (NMR, TLC); assay type: physicochemical; conditions: dried in vacuo at 140° for 15.5 hours, sample containing acetic acid and ethanol
Method: as §1
Stability. A sample of disodium PALA was dried in vacuo at 140° for 15.5 hours. […] This is believed to be an ester produced at the elevated temperature in the presence of ethanol and acetic acid.

expected tumor systems = assay: activity of tetrasodium PALA samples in tumor systems; assay type: in vivo
Source text: In spite of the above mentioned problems involving the consistency of elemental analyses and the low hydrogen values, the tetrasodium PALA samples were characterized as highly pure materials by nmr, optical rotation (comparison with literature value), and thin layer chromatography (homogeneous in four different solvent systems).

O=C(CP(=O)(O)O)N[C@@H](CC(=O)OCc1ccccc1)C(=O)OCc1ccccc1 [IV, L-Aspartic acid, N-(phosphonoacetyl)-, dibenzyl ester]
water solubility (in words) (solubility): insoluble in water | hygroscopicity (in words) (hygroscopic character; listed as dibenzyl PALA): hygroscopic

O=C(O)C[C@H](NC(=O)CP(=O)(O)O)C(=O)O [N,N'-dibenzylethylenediamine salt]
solubility in ethanol (solubility; ethanol, preliminary): soluble in ethanol

O=C(O)C[C@H](NC(=O)CP(=O)(O)O)C(=O)O [PALA, N-(phosphonoacetyl)-L-aspartic acid]
transition state analogue inhibitor of aspartate transcarbamylase [1]: transition state analogue inhibitor of aspartate transcarbamylase | inhibition of pyrimidine nucleotide biosynthesis in vitro [2]: inhibition of pyrimidine nucleotide biosynthesis in vitro | activity against B16 tumor system (B16 tumor): active | water solubility (in words) (solubility; water): high water solubility | activity against Lewis Lung tumor system (Lewis Lung tumor): active | activity against P388 tumor system (P388 tumor): active

O=C(CP(=O)(O)O)N[C@@H](CC(=O)OCc1ccccc1)C(=O)OCc1ccccc1 [XI, L-Aspartic acid, N-(phosphonoacetyl)-, dibenzyl ester, complexed with cyclohexylamine]
fold less active than tetrasodium PALA (tumor systems): approximately 100 fold | hygroscopicity (in words) (hygroscopic character): apparently less hygroscopic than (X)

O=C(CP(=O)(O)O)N[C@@H](CC(=O)OCc1ccccc1)C(=O)OCc1ccccc1 [X]
fold less active than tetrasodium PALA (tumor systems): approximately 100 fold | hygroscopicity (in words) (hygroscopic character): markedly hygroscopic

O=C(O)C[C@H](NC(=O)CP(=O)(O)O)C(=O)O [calcium salt of PALA]
water solubility (in words) (solubility; water): dissolves in water permitting ready formulation | rate of dissolution in water (solubility; water, results tentative): dissolves relatively slowly

O=C(O)C[C@H](NC(=O)CP(=O)(O)O)C(=O)O [cyclohexylamine salt]
hygroscopicity (in words) (hygroscopic character): completely nonhygroscopic

O=C([O-])C[C@H](NC(=O)CP(=O)(O)O)C(=O)[O-].[Na+].[Na+] [disodium PALA, L-Aspartic acid, N-(phosphonoacetyl)-, disodium salt]
pH of aqueous solution ([3]; 2% solution in water): 4.08 | structural integrity by NMR [4]: retained its structural integrity | change in thin layer chromatography ([4]; believed to be an ester): formation of a new, faster-running spot | water solubility (in words) (solubility; water): extremely water soluble | solubility (solubility; water, solvent-free material): > 950 mg/mL | physical state after moisture uptake (hygroscopic character): eventually take up enough moisture so as to lose their solid characteristics | hygroscopicity (in words) (hygroscopic character; disodium salt): less hygroscopic than tetrasodium PALA | hygroscopicity (in words) (hygroscopic character; listed as Disodium PALA, disodium salt): less hygroscopic than the tetrasodium compound

O=C(O)C[C@H](NC(=O)CP(=O)(O)O)C(=O)O [tetrasodium PALA, L-Aspartic acid, N-(phosphonoacetyl)-, tetrasodium salt]
pH when formulated in water ([3]; formulated in water): 9.2 | physiological acceptability of alkalinity in water ([3]; formulated in water, pH 9.2): alkaline (pH 9.2) to a degree generally considered harmful physiologically | activity in the expected tumor systems (expected tumor systems): active in the expected tumor systems | hygroscopicity (in words) (hygroscopic character): hygroscopic; also recorded: high degree of hygroscopicity | physical state after moisture uptake (hygroscopic character): eventually take up enough moisture so as to lose their solid characteristics | rate of absorption of atmospheric moisture relative to the disodium salt (hygroscopic character; tetrasodium versus disodium salt, solvent-free material): 1.5 times faster
